Patent US20240350538A1, “Use of an arsenic compound for treating a short or long cytokine storm in various autoimmune/inflammatory diseases in humans or animals” (priority 2020, published 2024)

System: fresh human Peripheral Blood Mononuclear Cells (hPBMCs)
Assay: Cytokine production (IFNα, IL-6, IL-1β) by hPBMCs in basal condition and after TLR-9 stimulation (ODN2216)
Format: cell-based
Conditions: TLR-9-stimulated hPBMCs, 24 h; PD0325901 1 μM + ATO 2.5 μM

O=C(NOC[C@H](O)CO)c1ccc(F)c(F)c1Nc1ccc(I)cc1F [PD0325901]
production of IFNα after inhibition by ATO: did not restore
